From patent publication US20160361257A1, “COMPOSITION FOR INCREASING TESTOSTERONE LEVELS AND ENHANCING LIBIDO” (priority 2015, published 2016)

How the values were obtained:
[1] = humans; prior art U.S. Pat. No. 5,880,117; cited from earlier work
[2] = half-life when delivered sublingually or transmucosally; details: in vivo
Experimental: 7-methoxyflavone is an aromatase inhibitor. Aromatase inhibitors work by inhibiting the action of the enzyme aromatase, which converts androgens into estrogens by a process called aromatization. 7-methoxyflavone is a compound having poor bioavailability of about 5% when ingested. According to an embodiment of the present invention, from about 5 mg to 50 mg, and preferably from about 20 mg to 30 mg of 7-methoxyflavone may be included in the formulations and dosage forms of the present invention, when delivered sublingually or transmucosally. […] According to an embodiment, the 7-methoxyflavone may be from a plant extract. 7-methoxyflavone has been found in Meliaceae and Rutaceae plants. According to an embodiment, the 7-methoxyflavone may therefore be from an extract containing at least 90% 7-methoxyflavone, standardized. Preferably, extract contains at least […] 7-methoxyflavone, standardized.
According to an embodiment of the present invention, from about 5 mg to 50 mg, and preferably from about 20 mg to 30 mg of 7,8-benzoflavone may be included in the formulations and dosage forms of the present invention, when delivered sublingually or transmucosally. According to an embodiment, the half-life of 7,8-benzoflavone is about 1-2h when delivered sublingually or transmucosally.

| Structure (SMILES) | period over which concentration declines after the peak [1] | time to peak concentration after administration [1] | half-life [2] |
| --- | --- | --- | --- |
| C[C@]12CC[C@H]3[C@@H](CCC4=C[C@@H](O)CC[C@@]43C)[C@@H]1CC[C@@H]2O [4-androstene-3β, 17β-diol] | 3 to 4 h | ≤ 90 min | – |
| O=c1cc(-c2ccccc2)oc2c1ccc1ccccc12 [7,8-benzoflavone, 2-phenyl-benzo(h)chromen-4-one] | – | – | 1 to 2 h |
| COc1ccc2c(=O)cc(-c3ccccc3)oc2c1 [7-methoxyflavone] | – | – | 8 to 12 h |
